Test results taken from patent US6809175B1, “Cadherin derived growth factor and its use” (Prof. Dr. Wolf-Georg Forssmann, priority 1997, dated 2004).

What was measured:
MAP kinase = assay: Western blot detection of intracellular MAP kinase in primary osteoblasts; assay type: cell-based, rat; conditions: primary osteoblasts incubated for different periods of time; FIG. 7
Method: As already shown under Example 5, intracellular calcium release can be induced on primary osteoblasts by incubation with CDGF. To further characterize this physiological response, the further intracellular signal pathway (downstream from calcium) was examined. One possible signal transduction cascade is the activation of MAP kinase, an enzyme which plays an essential role in the signal transduction from the cytoplasm into the nucleus. Signal transmission involves phosphorylation of the enzyme which can be detected with a specific antibody. Thus, this protein can be detected in a Western blot, which is a measure of both the phosphorylation and the expression due to the stimulus. Primary osteoblasts were incubated with cadherin or controls (FCS) for different periods of time. Expression of the enzyme (MAP kinase) in the cell was detected in the Western blot by the addition of the antibody. The results are represented in FIG. 7. […] The longer the stimulation with OB-CDGF, the more clearly could the band be discerned. […] Therefrom, it can be concluded that CDGF acts through calcium in a receptor-mediated way, and the further signal processing proceeds via MAP kinase.

primary osteoblasts [1] = assay: Proliferation assay on primary osteoblasts ([3H]thymidine or BrdU incorporation); assay type: cell-based; conditions: primary osteoblasts from fetal rat calvarias; serum-free medium with 1 mg/ml BSA; established for both native and synthetic peptide
Method: The isolation of OB-CDGF was based on its biological activity in a proliferation assay of the primary osteoblasts. Thus, aliquots of each of the individual chromatographic stages described under Example 1 were freeze-dried and then subjected to a biological assay. The fractions which gave a positive signal were respectively subjected to further purification.
The assay measures the proliferation of the cells after having been kept in serum-free medium with 1 mg/ml bovine serum albumin, adding the samples and determining the incorporation of [^3H]thymidine or bromode-oxyuranosine (Brdu) after a further 48 hours. As a positive control, factors promoting bone growth, such as IGF or angiotensin, or fetal calf serum (FCS) are employed.
The experiments were performed by analogy with Pfeilschifter et al., Endocrinology 126, 703, 1990.
The recovery of primary osteoblasts was effected by sequential digestive separation from fetal rat calvarias using collagenase to obtain 5 cell fractions. The pooled cell fractions 3-5 were cultured in vitro. […]
At the end of the incubation time, the cell cultures were washed three times with 0.9% saline, and then 100 μl of liquid scintillator (OptiPhase Super-mix®, Wallac) was added to each well. Subsequently, the radioactivity incorporated in the DNA was measured in a liquid scintillation counter (1450 MicroBeta®, Wallac) in cpm. […]

primary osteoblasts [2] = assay: Intracellular calcium release in primary osteoblasts (Fura-2); assay type: cell-based, rat; conditions: single primary osteoblasts, Fura-2, fluorescence microscope; FIG. 6
Method: The intracellular signal chain for calcium^2+is measured on individual osteoblast cells. The intracellular Ca^2+activity of primary osteoblasts is measured with the Ca^2+-sensitive dye Fura-2 (Calbiochem, Bad Soden, Germany). The primary osteoblasts are cultured for one to three days on glass supports (diameter 30 mm) attached to a perfusion chamber of an inverted microscope (Axiomat IDC-UV, Zeiss, Gottingen, Germany). […]
The incubation is followed by an equilibration period of 10 to 15 min in which the cells are washed with KHB solution at 37° C. with a perfusion rate of about 5 ml/min. The Fura-2-charged primary osteoblasts are measured at 340, 360 and 380 nm with a high speed filter wheel (rotational speed 10 Hertz), a single-photon counter tube (Hamamatsu, Herrsching, Germany) and a xenon quartz lamp (XBO 75 W/OFR, Zeiss, Germany) as a light/impulse source. The Fura-2 emission is measured through a long-wave filter at 510 nm with an Ultrafluar 125 ×glycerol immersion lens. […] The ratio of photon emissions upon excitation at 340 and 380 nm is evaluated. […] The raw data are calculated, and 10 neighboring data points are averaged to obtain a time resolution of 1 Hz. The fluorescence at 360 nm is used to test calcium activity. All samples are dissolved in a phosphate buffer prior to the experiment and measured for at least 1 to 2 minutes. […]

[3] = test system: neonatal rat osteoblast monolayers; assay: Binding assay of 125I-labeled OB-CDGF to osteoblasts; conditions: confluent layers and extracellular matrix of neonatal rat osteoblasts; 2 hours at 4° C.; FIG. 5
Method: The binding of the osteoproliferative peptides to neonatal rat osteoblast monolayers was effected with the use of ^125j-labeled peptides. Chloramine T was used for iodination. The specific activity of the peptides was 100,000 cpm/ng. The binding studies were performed on confluent layers and the extracellular matrix of a first passage of neonatal rat osteoblasts. The cells were incubated for 24 hours in serum-containing medium and then washed four times with PBS and incubated for 2 hoursat 4° C. in 250 μl of the assay buffer (20 mM HEPES, 0.1 mg/ml BSA, pH 7.0) with 80,000 cpm of the iodine-labeled peptide in the presence of different concentrations of the unlabeled peptide. The incubation buffer was then removed, and the cells washed four times with cold PBS and solubilized with 1 M NaOH. The cell-bound activity was determined using a gamma counter. The corresponding experimental results are represented in FIG. 5.

[4] = test system: primary cultures of neurons from spinal ganglia of chicken embryos; assay: Survival-promoting effect on primary nerve cell cultures (cellular LDH level); assay type: cell-based; conditions: neurons from spinal ganglia of chicken embryos (E10); cellular LDH level after 48 hours
Method: Primary Nerve Cell Cultures From Spinal Ganglia of Chicken Embryos (Embryo-Onal Development E10)
The preparation and cultivation is performed as described by Borasio G. D., John J., Wittinghofer A., Barde Y.-A., Sendtner M., Heumann R. (1989), Neuron 2, 1087-1096. To determine survival-promoting effects of active substances, determination of the cellular LDH level after an incubation time of 48 hours is employed. To this end, the culture medium is removed by tapping out the plate. Only the vital cells remain adhered to the bottom of the plate and can then be determined. To determine the LDH level, the LDH cytotoxicity test kit of Boehringer Mannheim (BM) is employed.
The cultures were used in duplicate in 96-well microtitration plates. On each plate, an NGF calibration curve is established in parallel, and the biological activity of the substances is expressed in pg/ml of NGF equivalents. As a low-molecular weight reference, the starurosporin derivative K252a is used in a parallel test in a concentration of 300 nmol/l.

ERRGHLRPSFHGHHEKGKEGQVLQRS (listed as Homo sapiens) [OB-CDGF, peptide purified from human hemofiltrate and resynthesized; human cadherin-11 precursor propeptide, amino acids 26-51]
expression of intracellular MAP kinase (Western blot band) (MAP kinase): leads to expression of intracellular MAP kinase | growth-promoting effect on primary osteoblasts (proliferation) (primary osteoblasts [1]): dose-dependent growth-promoting effect | intracellular calcium concentration (primary osteoblasts [2]): intracellular calcium concentration increases | displacement of labeled OB-CDGF by unlabeled OB-CDGF (specific binding) [3]: the level of specifically bound labeled OB-CDGF is reduced

QPQPQQTLATEPRENVIHLPGQRSHFQRV (listed as Homo sapiens) [BR-CDGF, peptide corresponding to the CDGF region of cadherin-12 (BR-cadherin; N-cadherin-2)]
survival-promoting effect on primary neurons [4]: survival-promoting effect on these primary neurons in a concentration-dependent way

TLSTPLSKRTSGFPAKKRALELSGNSKNELNRS (listed as Homo sapiens) [CAD6-CDGF, peptide corresponding to the CDGF region of cadherin-6]
survival-promoting effect on primary neurons [4]: survival-promoting effect on these primary neurons in a concentration-dependent way
